# Laboratory results taken from PubChem BioAssay AID1194 (EPA DSSTox, 2008).
# Active and inactive are the calls of the source.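 The calls were made as follows: active = chemicals rated mutagenic or weakly mutagenic in the Salmonella bacterial test by one literature review, or positive overall by another; inconclusive = no clear call, values can overlap the other calls; inactive = the rest.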 Numbered stars: 1 amine (or outer) side, 2 acyl side, 3 side chain; on linkers, the order of the positions; unused ones are H or OH. Bridge positions count the residues as written; N and C are the ends. Square brackets hold non-standard residues; d marks the D form. Peptide text beside a SMILES is read from it. I, II: the chains in the order shown. Actinocin(9to1) = Cc1c2oc3c(C)ccc(C(=O)[*:1])c3nc-2c(C(=O)[*:2])c(N)c1=O; NMeV = CN[C@H](C(=O)O)C(C)C; Sar = CNCC(=O)O
# Test system: Salmonella typhimurium Ames mutagenicity, literature compiled
# Assay: DSSTox (CPDBAS) Carcinogenic Potency Database Salmonella Mutagenicity
# Text: The Carcinogenic Potency Database (CPDB) is a unique and widely used international resource of the results of over 6500 chronic, long-term animal cancer tests on over 1500 chemical substances. The CPDB provides easy access to the bioassay literature, with qualitative and quantitative analyses of both positive and negative experiments that have been published over the past 50 years in the general literature and by the National Cancer Institute/National Toxicology Program. The CPDB standardizes the diverse literature of cancer bioassays that vary widely in protocol, histopathological examination and nomenclature, and in the published author's choices of what information to provide in their papers. Results are reported in the CPDB for tests in rats, mice, hamsters, dogs, and nonhuman primates, and are based on the most positive result among all experiments for each sex-species. The DSSTox CPDBAS (all species) file incorporates data from the CPDB Summary Tables for the full list of over 1500 chemical substances tested in at least one species.
# A chemical is classified within the CPDB as mutagenic, i.e. "active", in the Salmonella assay if it was evaluated overall as either "mutagenic" or "weakly mutagenic" by Zeiger [Zeiger, E. (1997) Genotoxicity Database. In: Gold and Zeiger, Eds. Handbook of Carcinogenic Potency and Genotoxicity Databases. Boca Raton, FL: CRC Press, pp. 687-729. http://potency.berkeley.edu/CRCbook.html] or as overall "positive" by the EPA Gene-Tox Program [Kier et al. (1986) Mutat. Res. 168: 69-240].
row,SMILES,outcome
1,COc1ccc(C(c2ccc(OC)cc2)C(Cl)(Cl)Cl)cc1,inactive; active
2,O=C1c2ccccc2C(=O)N1SC(Cl)(Cl)Cl,active
3,OCC1CO1 (configuration not stated),active; inactive
4,CC(C)=CCC/C(C)=C/C=O,inactive; active
5,CCCCC(CC)COP(=O)(OCC(CC)CCCC)OCC(CC)CCCC (configuration not stated),inactive; active
6,COC(=O)[C@H]1[C@H]2C[C@@H]3c4[nH]c5cc(OC)ccc5c4CCN3C[C@H]2C[C@@H](OC(=O)c2cc(OC)c(OC)c(OC)c2)[C@@H]1OC,inactive
7,ClCC(Cl)Cl,inactive
8,O=C1C2CC=CCC2C(=O)N1SC(Cl)(Cl)Cl (configuration not stated),active
9,CN(C)C(=S)[S][Pb][S]C(=S)N(C)C,active
10,O=C1CCCCC1,inactive; active
11,CCCCN(N=O)C(N)=O,active
12,CCN(CC)C(=O)/C(Cl)=C(\C)OP(=O)(OC)OC,active; inactive
13,ClC(Cl)(Cl)c1ccccc1,active
14,CN(Cc1cnc2nc(N)nc(N)c2n1)c1ccc(C(=O)N[C@@H](CCC(=O)O)C(=O)O)cc1,inactive
15,Oc1ccccc1O,inactive; active
16,ClC1=C(Cl)C2(Cl)C3C(Cl)C=CC3C1(Cl)C2(Cl)Cl (configuration not stated),inactive; active
17,O=C1OC(c2ccc(O)cc2)(c2ccc(O)cc2)c2ccccc21,inactive
18,OCc1ccco1,inactive; active
19,CN(C)CCN(Cc1cccs1)c1ccccn1,inactive; active
20,CC(Cl)(Cl)Cl,active
21,CCC1(c2ccccc2)C(=O)N=C(O)NC1=O (configuration not stated),inactive
22,c1ccc2c(c1)Nc1ccccc1S2,inactive
23,O=[N+]([O-])c1ccc(-c2nc(NCCO)c3ccccc3n2)s1,active
24,O[C@@H]([C@H](O)[C@@H](O)CBr)[C@@H](O)CBr,active

row,SMILES,outcome
1,C=CCc1ccc2c(c1)OCO2,inactive; active
2,C=CC(=O)NCO,inactive
3,C=CC(=C)C,inactive
4,ClCCl,active; inactive
5,ClC(Cl)C(Cl)Cl,inactive; active
6,CC(N)=S,inactive; active
7,CC(Cl)CCl (configuration not stated),active; inactive
8,O=C1NC(c2ccc([N+](=O)[O-])s2)Nc2ccccc21 (configuration not stated),active
9,CC1(C)S[C@@H]2[C@H](NC(=O)[C@H](N)c3ccccc3)C(=O)N2[C@H]1C(=O)O,inactive
10,CC(C)N(C(=O)SC/C(Cl)=C/Cl)C(C)C,active
11,COP(=O)(OC)OC,active; inactive
12,CN(C)CCOC(C)(c1ccccc1)c1ccccn1 (configuration not stated),inactive
13,CC[N+](=O)[O-],inactive; active
14,CCCC[C@H](C)[C@@H](OC(=O)C[C@H](CC(=O)O)C(=O)O)[C@@H](C[C@H](C)C[C@@H](O)CCCC[C@@H](O)C[C@H](O)[C@H](C)N)OC(=O)C[C@H](CC(=O)O)C(=O)O,inactive
15,CC(=O)N(O)c1ccc2c(c1)Cc1ccccc1-2,active; inactive
16,O=C1CCc2ccccc2O1,inactive; active
17,CCCN(CCC)N=O,active
18,CCOc1ccc2c(c1)C(C)=CC(C)(C)N2,inactive; active
19,CN(CCCC(=O)O)N=O,inactive
20,COP(=S)(OC)SCn1nnc2ccccc2c1=O,active; inactive
21,F,inactive; active
22,Cc1ccccc1N,active
23,"Cc1c2oc3c(C)ccc(C(=O)N[C@@H]4C(=O)N[C@H](C(C)C)C(=O)N5CCC[C@H]5C(=O)N(C)CC(=O)N(C)[C@@H](C(C)C)C(=O)O[C@@H]4C)c3nc-2c(C(=O)N[C@@H]2C(=O)N[C@H](C(C)C)C(=O)N3CCC[C@H]3C(=O)N(C)CC(=O)N(C)[C@@H](C(C)C)C(=O)O[C@@H]2C)c(N)c1=O (I: T[dV]P[Sar][NMeV] / II: T[dV]P[Sar][NMeV]; ester I:1-I:C, II:1-II:C; linker I:N-II:N via Actinocin(9to1))",inactive; active
24,CC(=O)Nc1ccc(O)cc1,inactive; active

row,SMILES,outcome
1,CN(C#N)N=O,active; inactive
2,Nc1ccc(S(=O)(=O)c2ccc(N)cc2)cc1,inactive; active
3,C1OC1C1CO1 (configuration not stated),active
4,O=C1CCO1,active
5,ClCC(Cl)(Cl)Cl,inactive; active
6,CNc1ccc(N(CCO)CCO)cc1[N+](=O)[O-],active
7,O[C@H]([C@H](O)[C@@H](O)CBr)[C@H](O)CBr,active; inactive
8,Nc1cc(Cl)cc(C(=O)O)c1Cl,active
9,CC(=O)OC(OC(C)=O)c1ccc([N+](=O)[O-])o1,active
10,CCSCC[C@H](N)C(=O)O,inactive
11,CCOP(=S)(OCC)Oc1nc(Cl)c(Cl)cc1Cl,inactive
12,Nc1c(Br)cc(Br)c2c1C(=O)c1ccccc1C2=O,active
13,Cl/C=C/CCl,active; inactive
14,CC12CCC(CC1)C(C)(C)O2,inactive; active
15,NC(=S)Nc1ccccc1,inactive
16,CC#N,inactive
17,CCCCC(CC)COC(=O)c1ccccc1C(=O)OCC(CC)CCCC (configuration not stated),inactive; active
18,CC(=O)Nc1nc(-c2ccc([N+](=O)[O-])o2)cs1,active; inactive
19,C[C@H]1CCCC(=O)CCC/C=C/c2cc(O)cc(O)c2C(=O)O1,inactive; active
20,COc1ccc(N)c(OC)c1,active; inactive
21,CC(C)CCC[C@@H](C)[C@H]1CC[C@H]2[C@@H]3CC=C4C[C@@H](OC(=O)Cc5ccc(N(CCCl)CCCl)cc5)CC[C@]4(C)[C@H]3CC[C@]12C,inactive; active
22,Cc1ncc([N+](=O)[O-])n1C,active
23,ClC(Cl)Br,active
24,O.O.O.O.O.O.O.O=S(=O)([O-])[O-].[Co+2],active

row,SMILES,outcome
1,O=P1(N(CCCl)CCCl)NCCCO1 (configuration not stated),active
2,Oc1ccc(O)cc1,inactive
3,CCCCOC(=O)COc1ccc(Cl)cc1Cl,inactive; active
4,CCCCC(CC)COC(=O)COc1ccc(Cl)cc1Cl (configuration not stated),inactive
5,CN(C)c1ccc(N=NS(=O)(=O)O)cc1,active; inactive
6,O=P(OCC(Br)CBr)(OCC(Br)CBr)OCC(Br)CBr (configuration not stated),active
7,O=C(c1ccccc1)C(O)c1ccccc1 (configuration not stated),inactive
8,CC1=C(/C=C/C(C)=C/C=C/C(C)=C/C=C/C=C(C)/C=C/C=C(C)/C=C/C2=C(C)CCCC2(C)C)C(C)(C)CCC1,active; inactive
9,CCC(Br)(CC)C(=O)NC(N)=O,inactive
10,O=c1[nH]cc(F)c(=O)[nH]1,inactive; active
11,CC1=NN(c2ccccc2)C(=O)C1,inactive
12,C=CC#N,active
13,Nc1nc(-c2ccc([N+](=O)[O-])o2)cs1,active
14,CN(C)N=O,active
15,c1ccc(Nc2ccc3ccccc3c2)cc1,inactive; active
16,Cc1cc(=O)n(-c2ccccc2)n1C,inactive; active
17,CC(C)O,inactive; active
18,CCCCN(N=O)C(=N)N[N+](=O)[O-],active
19,C=CCc1ccc(OC)c(OC)c1,inactive; active
20,O=C(O)Cc1c[nH]c2ccccc12,inactive
21,Nc1ccc(Cl)cc1N,active; inactive
22,C[C@@H]1Cc2c(Cl)cc(C(=O)N[C@@H](Cc3ccccc3)C(=O)O)c(O)c2C(=O)O1,inactive
23,CC1CN(N=O)CC(C)O1 (configuration not stated),active
24,CC(C)CCCCCCOC(=O)c1ccccc1C(=O)OCCCCCCC(C)C,inactive; active

row,SMILES,outcome
1,COc1ccc(O)cc1,inactive; active
2,Nc1ccccc1C(=O)O,inactive
3,CCCl,active
4,OC[C@H]1O[C@@](CO)(O[C@H]2O[C@H](CO)[C@@H](O)[C@H](O)[C@H]2O)[C@@H](O)[C@@H]1O,inactive; active
5,CCOC(=O)C1OC1(C)c1ccccc1 (configuration not stated),inactive; active
6,CNN,active; inactive
7,CCCCOCCO,inactive; active
8,Cc1ccc(N=Nc2c(O)c(S(=O)(=O)O)cc3ccc(S(=O)(=O)O)cc23)c(C)c1,active
9,[CH3][Hg][Cl],inactive; active
10,CCCCCc1cc(O)c2c(c1)OC(C)(C)[C@@H]1CCC(C)=C[C@@H]21,inactive; active
11,Oc1ccc2ccccc2c1N=Nc1ccccc1,active; inactive
12,Nc1ccc(-c2ccc(N)cc2)cc1,active
13,NS(=O)(=O)c1cc2c(cc1Cl)NCNS2(=O)=O,inactive; active
14,ClC(Cl)=C(c1ccc(Cl)cc1)c1ccc(Cl)cc1,inactive; active
15,[Cl-].[Cl-].[Cl-].[Fe+3],inactive
16,Nc1ccc(N)c2c1C(=O)c1c(N)ccc(N)c1C2=O,active
17,COP(=O)(OC)O/C(=C\Cl)c1cc(Cl)c(Cl)cc1Cl,inactive; active
18,CC(I)C1OCC(CO)O1 (configuration not stated),active
19,O=C1c2ccccc2C(=O)c2ccccc21,active; inactive
20,O=c1cc(CO)occ1O,active; inactive
21,C=CC(=O)c1ccc2c(c1)OCO2,inactive; active
